According to paper PMC7253176, “Characterization of the kinetic cycle of an ABC transporter by single-molecule and cryo-EM analyses” (eLife, 2020):

Legend:
[1] = target: T1, bovine multidrug resistance protein 1 (bMRP1) (Bos taurus, UniProt Q8HXQ5, DEL868-879); test: smFRET dose response of IF1 state occupancy (purified protein); also stimulates ATPase activity; format: binding
T1 construct: gene ABCC1; purified WT bMRP1 with S6 peptide replacing residues 868–879 and A1 peptide after V1530, Cy3/LD655-labeled

[2] = target: T2, bovine multidrug resistance protein 1 (bMRP1) (Bos taurus, UniProt Q8HXQ5); test: biochemical
T2 construct: gene ABCC1
T2 sequence (Q8HXQ5 whole entry): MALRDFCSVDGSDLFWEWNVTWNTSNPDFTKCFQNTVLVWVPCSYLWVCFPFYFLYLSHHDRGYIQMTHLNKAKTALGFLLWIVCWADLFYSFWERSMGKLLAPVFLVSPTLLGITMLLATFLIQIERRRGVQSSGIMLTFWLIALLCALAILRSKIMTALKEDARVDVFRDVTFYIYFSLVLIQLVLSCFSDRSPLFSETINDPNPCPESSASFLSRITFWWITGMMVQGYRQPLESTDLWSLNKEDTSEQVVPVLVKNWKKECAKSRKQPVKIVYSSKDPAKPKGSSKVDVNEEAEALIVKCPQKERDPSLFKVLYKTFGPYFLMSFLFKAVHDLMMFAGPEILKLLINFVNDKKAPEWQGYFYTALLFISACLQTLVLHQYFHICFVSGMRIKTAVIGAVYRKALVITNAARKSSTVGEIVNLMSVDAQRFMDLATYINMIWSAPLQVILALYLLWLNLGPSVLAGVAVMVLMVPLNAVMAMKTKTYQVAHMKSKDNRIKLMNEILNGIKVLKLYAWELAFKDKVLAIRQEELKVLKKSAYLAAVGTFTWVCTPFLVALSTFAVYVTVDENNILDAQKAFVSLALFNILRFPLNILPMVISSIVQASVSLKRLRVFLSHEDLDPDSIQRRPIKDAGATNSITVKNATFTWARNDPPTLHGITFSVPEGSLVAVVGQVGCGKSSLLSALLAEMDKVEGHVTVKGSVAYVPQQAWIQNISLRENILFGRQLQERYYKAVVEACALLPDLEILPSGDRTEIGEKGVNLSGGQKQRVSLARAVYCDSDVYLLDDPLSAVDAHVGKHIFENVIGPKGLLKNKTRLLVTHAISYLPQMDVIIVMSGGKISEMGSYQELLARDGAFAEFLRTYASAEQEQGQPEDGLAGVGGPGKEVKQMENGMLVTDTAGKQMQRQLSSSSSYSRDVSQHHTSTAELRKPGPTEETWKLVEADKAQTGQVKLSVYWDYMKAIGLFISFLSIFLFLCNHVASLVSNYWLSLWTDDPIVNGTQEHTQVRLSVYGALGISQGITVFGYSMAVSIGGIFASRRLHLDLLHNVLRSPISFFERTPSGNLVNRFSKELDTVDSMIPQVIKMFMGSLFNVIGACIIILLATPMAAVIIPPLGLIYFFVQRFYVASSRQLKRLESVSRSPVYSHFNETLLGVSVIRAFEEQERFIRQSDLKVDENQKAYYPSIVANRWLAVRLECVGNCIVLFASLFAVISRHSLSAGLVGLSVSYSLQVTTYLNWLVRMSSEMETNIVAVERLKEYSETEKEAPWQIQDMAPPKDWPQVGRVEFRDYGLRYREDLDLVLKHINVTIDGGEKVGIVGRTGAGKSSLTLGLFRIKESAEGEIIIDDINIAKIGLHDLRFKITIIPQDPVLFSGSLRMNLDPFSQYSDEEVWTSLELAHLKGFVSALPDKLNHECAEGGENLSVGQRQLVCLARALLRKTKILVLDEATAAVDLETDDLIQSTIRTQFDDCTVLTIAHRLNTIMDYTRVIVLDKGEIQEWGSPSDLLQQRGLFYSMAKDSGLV

T1 sequence (Q8HXQ5 1-867, stated change not applied): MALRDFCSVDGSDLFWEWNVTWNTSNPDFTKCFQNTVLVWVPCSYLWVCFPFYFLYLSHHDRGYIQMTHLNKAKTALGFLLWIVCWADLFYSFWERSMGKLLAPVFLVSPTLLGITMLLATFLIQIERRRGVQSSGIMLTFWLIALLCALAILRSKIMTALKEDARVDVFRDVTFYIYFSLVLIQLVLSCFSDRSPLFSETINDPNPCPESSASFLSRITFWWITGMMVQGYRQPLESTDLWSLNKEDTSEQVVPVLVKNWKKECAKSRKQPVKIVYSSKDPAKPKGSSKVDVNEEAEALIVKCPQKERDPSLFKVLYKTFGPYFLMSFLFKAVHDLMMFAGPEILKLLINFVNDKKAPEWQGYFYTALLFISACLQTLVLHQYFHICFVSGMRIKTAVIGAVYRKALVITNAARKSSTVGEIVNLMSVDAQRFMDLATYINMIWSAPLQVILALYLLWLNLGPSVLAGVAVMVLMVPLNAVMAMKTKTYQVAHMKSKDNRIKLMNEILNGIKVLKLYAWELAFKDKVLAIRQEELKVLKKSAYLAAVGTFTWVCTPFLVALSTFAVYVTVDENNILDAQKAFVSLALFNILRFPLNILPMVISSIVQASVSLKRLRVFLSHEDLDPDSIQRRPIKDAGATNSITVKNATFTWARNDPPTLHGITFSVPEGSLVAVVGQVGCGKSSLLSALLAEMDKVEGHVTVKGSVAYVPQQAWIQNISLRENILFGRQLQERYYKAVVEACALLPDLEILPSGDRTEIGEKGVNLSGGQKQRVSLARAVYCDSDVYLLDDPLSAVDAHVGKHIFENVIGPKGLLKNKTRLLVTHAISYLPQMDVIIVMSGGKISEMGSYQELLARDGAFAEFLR
T1 sequence (Q8HXQ5 880-1530, stated change not applied): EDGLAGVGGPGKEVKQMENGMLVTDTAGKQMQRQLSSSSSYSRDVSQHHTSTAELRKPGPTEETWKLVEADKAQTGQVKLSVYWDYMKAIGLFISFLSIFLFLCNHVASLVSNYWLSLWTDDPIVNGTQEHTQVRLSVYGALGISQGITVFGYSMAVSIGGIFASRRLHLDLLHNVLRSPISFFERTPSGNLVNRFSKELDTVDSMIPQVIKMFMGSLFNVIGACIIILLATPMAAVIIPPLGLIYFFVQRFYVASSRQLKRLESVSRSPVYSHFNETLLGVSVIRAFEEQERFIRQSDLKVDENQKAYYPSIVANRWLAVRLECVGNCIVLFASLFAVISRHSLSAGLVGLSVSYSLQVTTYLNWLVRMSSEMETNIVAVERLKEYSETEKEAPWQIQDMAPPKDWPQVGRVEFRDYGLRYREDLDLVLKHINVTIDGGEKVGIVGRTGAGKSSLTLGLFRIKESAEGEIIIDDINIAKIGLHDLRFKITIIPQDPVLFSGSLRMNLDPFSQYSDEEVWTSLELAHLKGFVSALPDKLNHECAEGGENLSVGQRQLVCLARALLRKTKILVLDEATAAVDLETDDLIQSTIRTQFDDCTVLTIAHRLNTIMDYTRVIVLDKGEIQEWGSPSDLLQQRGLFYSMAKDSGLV

| Compound | EC50 [1] | EC50 [2] |
| --- | --- | --- |
| CCCCC/C=C\C\C=C/C=C/C=C/[C@@H](SC[C@H](NC(=O)CC[C@H](N)C(=O)O)C(=O)NCC(=O)O)[C@@H](O)CCCC(=O)O [Leukotriene C4] | 0.32 ± 0.17 µM |  |
| Nc1ncnc2c1ncn2[C@@H]1O[C@H](COP(=O)(O)OP(=O)(O)OP(=O)(O)O)[C@@H](O)[C@H]1O [ATP] |  | 50 ± 20 µM |
